Measured values reported in patent US9376418B2, “Substituted pyridine spleen tyrosine kinase (SYK) inhibitors” (Merck Sharp & Dohme Corp., priority 2012, dated 2016).

Molecular target: T1, recombinant human GST-SYK (Homo sapiens, UniProt P43405)
T1 construct: purchased Carna Biosciences 08-176
Experiment: Homogeneous Time-Resolved Fluorescence (HTRF) assay for the recombinant human Syk enzyme
Type: biochemical
Details: HTRF assay, recombinant human GST-SYK; IC50 given as class symbols; read-out: rhSYK Activity
Description: Homogeneous Time-Resolved Fluorescence (HTRF) Assay for the Recombinant Human Syk Enzyme
A recombinant GST-hSYK fusion protein was used to measure potency of compounds to inhibit human Syk activity. The recombinant human GST-SYK (Carna Biosciences #08-176) ([…]) was incubated with various concentrations of the inhibitor diluted in DMSO (0.1% final concentration) for 10 minutes at room temperature in 15 mM Tris-HCl (pH 7.5), 0.01% tween 20, 2 mM DTT in 384 well plate format. To initiate the reaction the biotinylated substrate peptide (250 nM final concentration) that contains the phosphorylation site for Syk was added with magnesium (5 mM final concentration) and ATP (25 μM final concentration). Final volume of the reaction was 10 μL. Phosphorylation of the peptide was allowed to proceed for 45′ at room temperature. To quench the reaction and detect the phosphorylated product, 2 nM of a Europium-anti-phosphotyrosine antibody (Perkin Elmer #AD0161) and 70 nM SA-APC (Perkin-Elmer #CR130-100) were added together in 15 mM Tris pH 7.5, 40 mM EDTA, 0.01% tween 20. Final volume of the quenching solution was 10 μL. The resulting HTRF signal was measured after 30 minutes on an EnVision (Perkin-Elmer) reader using a time-resolved fluorescence protocol.

Row | IC50 [µM] | SMILES
1 | < 0.1 | Cc1cc(Nc2nccc(C(F)(F)F)n2)cc(-c2ccnc(NCC(C)O)c2)c1 (stereo not drawn) [Example 15.72, 1-{[4-(3-methyl-5-{[4-(trifluoromethyl)pyrimidin-2-yl]amino}phenyl)pyridin-2-yl]amino}propan-2-ol]
2 | < 0.1 | Cc1cc(Nc2nccc(C(F)(F)F)n2)cc(-c2ccc(NCC(=O)NCC(N)=O)nc2)c1 [Example 12.7, N-[5-(3-methyl-5-{[4-(trifluoromethyl)pyrimidin-2-yl]amino}phenyl)pyridin-2-yl]glycylglycinamide]
3 | < 0.1 | Cc1cc(Nc2nccc(C(F)(F)F)n2)cc(-c2ccnc(N[C@@H](C)CO)c2)c1 [Example 15.48, (2S)-2-{[4-(3-methyl-5-{[4-(trifluoromethyl)pyrimidin-2-yl]amino}phenyl)pyridin-2-yl]amino}propan-1-ol]
4 | < 0.1 | Cc1cc(Nc2nccc(C(F)(F)F)n2)cc(-c2ccc(N3CC[C@H](O)[C@H]3C(=O)O)nc2)c1 [Example 7.134, (3S)-3-hydroxy-1-[5-(3-methyl-5-{[4-(trifluoromethyl)pyrimidin-2-yl]amino}phenyl)pyridin-2-yl]-L-proline]
5 | 0.1 to 1 | Cc1cc(Nc2nccc(C(F)(F)F)n2)cc(-c2ccc(C(=O)NCc3cn(C)cn3)nc2)c1 [Example 16.17, N-[(1-methyl-1H-imidazol-4-yl)methyl]-5-(3-methyl-5-{[4-(trifluoromethyl)pyrimidin-2-yl]amino}phenyl)pyridine-2-carboxamide]
6 | < 0.1 | Cc1cc(Nc2nccc(C(F)(F)F)n2)cc(-c2ccc(C(=O)N3CCCC34CCNC4=O)nc2)c1 (stereo not drawn) [Example 16.44, 1-{[5-(3-methyl-5-{[4-(trifluoromethyl)pyrimidin-2-yl]amino}phenyl)pyridin-2-yl]carbonyl}-1,7-diazaspiro[4.4]nonan-6-one]
7 | < 0.1 | Cc1cc(Nc2nccc(C(F)(F)F)n2)cc(-c2ccc(NC(=O)CC(=O)O)nc2)c1 [Example 8.4, 3-{[5-(3-methyl-5-{[4-(trifluoromethyl)pyrimidin-2-yl]amino}phenyl)pyridin-2-yl]amino}-3-oxopropanoic acid]
8 | < 0.1 | CC(=O)Nc1cc(Nc2nccc(C(F)(F)F)n2)cc(-c2ccc(NC3CCNC3=O)nc2)c1 (stereo not drawn) [Example 7.3, N-(3-{6-[(2-oxopyrrolidin-3-yl)amino]pyridin-3-yl}-5-{[4-(trifluoromethyl)pyrimidin-2-yl]amino}phenyl)acetamide]
9 | < 0.1 | Cc1cc(Nc2nccc(C(F)(F)F)n2)cc(-c2cncc([C@]3(O)CC[C@H](C(=O)O)CC3)c2)c1 [Example 9.70, trans-4-hydroxy-4-[5-(3-methyl-5-{[4-(trifluoromethyl)pyrimidin-2-yl]amino}phenyl)pyridin-3-yl]cyclohexanecarboxylic acid]
10 | < 0.1 | Cc1cc(Nc2nccc(C)n2)cc(-c2ccc([C@]3(O)CC[C@@H](C(=O)O)CC3)nc2)c1 [Example 9.37, cis-4-hydroxy-4-(5-{3-methyl-5-[(4-methylpyrimidin-2-yl)amino]phenyl}pyridin-2-yl)cyclohexanecarboxylic acid]
11 | 0.1 to 1 | COc1cccc(-c2cc(C)cc(Nc3nccc(C(F)(F)F)n3)c2)n1 [Example 4.9]
12 | 1 to 10 | CCOC(=O)CCc1cccc(-c2cccc(Nc3nccc(C(F)(F)F)n3)c2)n1 [Example 2.14, ethyl 3-[6-(3-{[4-(trifluoromethyl)pyrimidin-2-yl]amino}phenyl)pyridin-2-yl]propanoate]
13 | 0.1 to 1 | Cc1cc(Nc2nccc(C(F)(F)F)n2)cc(-c2ccnc(NCCc3cnccn3)c2)c1 [Example 15.33, N-(3-methyl-5-{2-[(2-pyrazin-2-ylethyl)amino]pyridin-4-yl}phenyl)-4-(trifluoromethyl)pyrimidin-2-amine]
14 | < 0.1 | Cc1cc(Nc2nccc(C(F)(F)F)n2)cc(-c2ccc(N[C@H](C)C(=O)O)nc2)c1 [Example 7.89, N-[5-(3-methyl-5-{[4-(trifluoromethyl)pyrimidin-2-yl]amino}phenyl)pyridin-2-yl]-D-alanine]
15 | < 0.1 | CC(C)(Nc1ccc(-c2cccc(Nc3nccc(C(F)(F)F)n3)c2)cn1)C(=O)O [Example 7.125, 2-methyl-N-[5-(3-{[4-(trifluoromethyl)pyrimidin-2-yl]amino}phenyl)pyridin-2-yl]alanine]
16 | < 0.1 | Cc1cc(Nc2nccc(C(F)(F)F)n2)cc(-c2ccc(N[C@H]3CCC(=O)NC3)nc2)c1 [Example 7.52, (5S)-5-{[5-(3-methyl-5-{[4-(trifluoromethyl)pyrimidin-2-yl]amino}phenyl)pyridin-2-yl]amino}piperidin-2-one]
17 | < 0.1 | COc1ccnc(Nc2cc(C)cc(-c3ccnc(N)c3)c2)n1 [Example 4.1, N-[3-(2-aminopyridin-4-yl)-5-methylphenyl]-4-methoxypyrimidin-2-amine]

Row | IC50 [µM] | SMILES
18 | < 0.1 | Cc1cc(Nc2nccc(C(F)(F)F)n2)cc(-c2cncc(C3(O)CCC(O)CC3)c2)c1 (stereo not drawn) [Example 9.76, 1-[5-(3-methyl-5-{[4-(trifluoromethyl)pyrimidin-2-yl]amino}phenyl)pyridin-3-yl]cyclohexane-1,4-diol]
19 | 0.1 to 1 | Cc1cc(Nc2nccc(C(F)(F)F)n2)cc(-c2ccnc(C(F)(F)F)c2)c1 [Example 2.123, N-{3-methyl-5-[2-(trifluoromethyl)pyridin-4-yl]phenyl}-4-(trifluoromethyl)pyrimidin-2-amine]
20 | 0.1 to 1 | Cc1cc(Nc2nccc(C(F)(F)F)n2)cc(-c2ccc(C(=O)NC3(CO)CC3)nc2)c1 [Example 16.8, N-[1-(hydroxymethyl)cyclopropyl]-5-(3-methyl-5-{[4-(trifluoromethyl)pyrimidin-2-yl]amino}phenyl)pyridine-2-carboxamide]
21 | < 0.1 | Cc1cc(Nc2nccc(C(F)(F)F)n2)cc(-c2ccc(N3CC(O)C3)nc2)c1 [Example 7.36, 1-[5-(3-methyl-5-{[4-(trifluoromethyl)pyrimidin-2-yl]amino}phenyl)pyridin-2-yl]azetidin-3-ol]
22 | < 0.1 | Cc1cc(Nc2nccc(C(F)(F)F)n2)cc(-c2ccc(C(=O)N3CCC(C)(O)CC3)nc2)c1 [Example 16.48, 4-methyl-1-{[5-(3-methyl-5-{[4-(trifluoromethyl)pyrimidin-2-yl]amino}phenyl)pyridin-2-yl]carbonyl}piperidin-4-ol]
23 | < 0.1 | Cc1cc(Nc2nccc(C(F)(F)F)n2)cc(-c2ccc(C(F)(F)CO)nc2)c1 [Example 2.117, 2,2-difluoro-2-[5-(3-methyl-5-{[4-(trifluoromethyl)pyrimidin-2-yl]amino}phenyl)pyridin-2-yl]ethanol]
24 | < 0.1 | Cc1cc(Nc2nccc(C(F)(F)F)n2)cc(-c2ccc([C@]3(O)CC[C@H](C(=O)O)CC3)nc2)c1 [Example 9.35, trans 4-hydroxy-4-[5-(3-methyl-5-{[4-(trifluoromethyl)pyrimidin-2-yl]amino}phenyl)pyridin-2-yl]cyclohexanecarboxylic acid]
25 | < 0.1 | Cc1cc(Nc2nccc(C(F)(F)F)n2)cc(-c2ccnc(C3(O)CCC(=O)CC3)c2)c1 [Example 9.2, 4-Hydroxy-4-[4-(3-methyl-5-{[4-(trifluoromethyl)pyrimidin-2-yl]amino}phenyl)pyridin-2-yl]cyclohexanone]
26 | 0.1 to 1 | CNC(=O)CNC(=O)c1ccc(-c2cc(C)cc(Nc3nccc(C(F)(F)F)n3)c2)cn1 [Example 16.63, N-[2-(methylamino)-2-oxoethyl]-5-(3-methyl-5-{[4-(trifluoromethyl)pyrimidin-2-yl]amino}phenyl)pyridine-2-carboxamide]
27 | < 0.1 | CC(=O)NCCN(C)c1ccc(-c2cc(C)cc(Nc3nccc(C(F)(F)F)n3)c2)cn1 [Example 7.50, N-(2-{methyl[5-(3-methyl-5-{[4-(trifluoromethyl)pyrimidin-2-yl]amino}phenyl)pyridin-2-yl]amino}ethyl)acetamide]
28 | 0.1 to 1 | C=C(F)CNC(=O)c1ccc(-c2cc(C)cc(Nc3nccc(C(F)(F)F)n3)c2)cn1 [Example 16.28, N-(2-fluoroprop-2-en-1-yl)-5-(3-methyl-5-{[4-(trifluoromethyl)pyrimidin-2-yl]amino}phenyl)pyridine-2-carboxamide]
29 | < 0.1 | Cc1cc(Nc2nccc(C(C)(F)F)n2)cc(-c2cccnc2)c1 [Example 20.1, 4-(1,1-Difluoroethyl)-N-[3-methyl-5-(pyridin-3-yl)phenyl]pyrimidin-2-amine]
30 | < 0.1 | Cc1cc(Nc2nccc(C(F)(F)F)n2)cc(-c2ccc(C(C)O)nc2)c1 (stereo not drawn) [Example 2.138, 1-[5-(3-Methyl-5-{[4-(trifluoromethyl)pyrimidin-2-yl]amino}phenyl)pyridin-2-yl]ethanol]
31 | 0.1 to 1 | COCC1CCN(c2ccc(-c3cc(C)cc(Nc4nccc(C(F)(F)F)n4)c3)cn2)C1 (stereo not drawn) [Example 7.61, N-(3-{6-[3-(methoxymethyl)pyrrolidin-1-yl]pyridin-3-yl}-5-methylphenyl)-4-(trifluoromethyl)pyrimidin-2-amine]
32 | 0.1 to 1 | Cc1cc(Nc2nccc(C(F)(F)F)n2)cc(-c2ccc(N3CCN(C)C(=O)C3)nc2)c1 [Example 7.33, 1-methyl-4-[5-(3-methyl-5-{[4-(trifluoromethyl)pyrimidin-2-yl]amino}phenyl)pyridin-2-yl]piperazin-2-one]
33 | < 0.1 | CNCc1ccc(-c2cc(C)cc(Nc3nccc(C(F)(F)F)n3)c2)cn1 [Example 2.49, N-(3-methyl-5-{6-[(methylamino)methyl]pyridin-3-yl}phenyl)-4-(trifluoromethyl)pyrimidin-2-amine]
